Data taken from ChEMBL document CHEMBL1141497, “Discovery of novel FMS kinase inhibitors as anti-inflammatory agents” (Bioorg Med Chem Lett, 2008).
One block for each molecule: values may come before it.

Columns and labels:
[1] = biological target: Macrophage colony-stimulating factor 1 receptor (Homo sapiens, UniProt P07333); assay: biochemical
[2] = Cmax in CD1 mouse at 2 mg/kg, iv and 10 mg/kg, po; format: ADME, organism-based; details: in vivo
Macrophage = assay: Inhibition of FMS-induced proliferation of bone marrow derived human macrophages; format: functional, cell-based
[3] = Half life in CD1 mouse at 2 mg/kg, iv and 10 mg/kg, po; format: ADME, organism-based; details: in vivo
[4] = Oral bioavailability in CD1 mouse at 10 mg/kg; format: ADME, organism-based; details: in vivo
[5] = Volume of distribution in CD1 mouse at 2 mg/kg, iv and 10 mg/kg, po; format: ADME, organism-based; details: in vivo, read-out: Vdss
Mus musculus [6] = assay: Reduction in progression of collagen-induced arthritis scores in mouse CIA model at 5 mg/kg, po bid; format: functional; set-up: scale not given: the % may be the effect or the level left
Mus musculus [7] = species on record: Mus musculus; assay: Reduction in bone destruction in mouse CIA model BID for 14 days; format: functional; set-up: scale not given: the % may be the effect or the level left
[8] = biological target: Mast/stem cell growth factor receptor Kit (Homo sapiens, UniProt P10721); assay: Inhibition of Kit after 30 mins by fluorescence polarization
Chain of Mast/stem cell growth factor receptor Kit (P10721 whole entry): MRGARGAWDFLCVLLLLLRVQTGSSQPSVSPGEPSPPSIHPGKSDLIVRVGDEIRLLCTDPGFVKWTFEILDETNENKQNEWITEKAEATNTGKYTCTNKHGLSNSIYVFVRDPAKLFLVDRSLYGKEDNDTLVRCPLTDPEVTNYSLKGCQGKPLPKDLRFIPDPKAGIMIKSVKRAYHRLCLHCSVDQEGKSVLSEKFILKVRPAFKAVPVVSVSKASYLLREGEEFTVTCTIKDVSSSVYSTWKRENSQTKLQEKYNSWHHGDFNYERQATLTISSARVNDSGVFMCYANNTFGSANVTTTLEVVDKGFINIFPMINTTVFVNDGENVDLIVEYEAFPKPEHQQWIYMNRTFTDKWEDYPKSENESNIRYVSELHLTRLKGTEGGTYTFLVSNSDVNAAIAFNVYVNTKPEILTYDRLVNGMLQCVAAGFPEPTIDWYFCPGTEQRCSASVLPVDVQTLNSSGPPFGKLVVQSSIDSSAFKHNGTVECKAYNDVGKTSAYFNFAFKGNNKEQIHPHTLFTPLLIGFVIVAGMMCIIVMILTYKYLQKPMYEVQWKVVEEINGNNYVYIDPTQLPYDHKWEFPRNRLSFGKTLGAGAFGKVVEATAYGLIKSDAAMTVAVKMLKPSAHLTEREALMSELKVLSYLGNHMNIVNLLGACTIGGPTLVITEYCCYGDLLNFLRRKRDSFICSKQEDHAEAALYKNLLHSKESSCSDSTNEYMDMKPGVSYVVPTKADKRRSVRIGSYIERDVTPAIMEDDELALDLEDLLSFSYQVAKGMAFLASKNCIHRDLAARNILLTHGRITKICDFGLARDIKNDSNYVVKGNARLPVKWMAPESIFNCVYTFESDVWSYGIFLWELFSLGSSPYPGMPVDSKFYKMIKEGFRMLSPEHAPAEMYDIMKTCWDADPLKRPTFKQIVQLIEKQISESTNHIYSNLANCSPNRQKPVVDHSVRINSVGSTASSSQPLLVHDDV

Mus musculus [9] = species on record: Mus musculus; assay: Reduction in pannus formation in mouse CIA model BID for 14 days; format: functional; set-up: scale not given: the % may be the effect or the level left
Mus musculus [10] = assay: Reduction in progression of collagen-induced arthritis scores in mouse CIA model at 30 mg/kg, po bid; format: functional; set-up: scale not given: the % may be the effect or the level left
[11] = biological target: High affinity nerve growth factor receptor (Homo sapiens, UniProt P04629); assay: Inhibition of TrkA after 27 mins by fluorescence polarization
Chain of High affinity nerve growth factor receptor (P04629 whole entry): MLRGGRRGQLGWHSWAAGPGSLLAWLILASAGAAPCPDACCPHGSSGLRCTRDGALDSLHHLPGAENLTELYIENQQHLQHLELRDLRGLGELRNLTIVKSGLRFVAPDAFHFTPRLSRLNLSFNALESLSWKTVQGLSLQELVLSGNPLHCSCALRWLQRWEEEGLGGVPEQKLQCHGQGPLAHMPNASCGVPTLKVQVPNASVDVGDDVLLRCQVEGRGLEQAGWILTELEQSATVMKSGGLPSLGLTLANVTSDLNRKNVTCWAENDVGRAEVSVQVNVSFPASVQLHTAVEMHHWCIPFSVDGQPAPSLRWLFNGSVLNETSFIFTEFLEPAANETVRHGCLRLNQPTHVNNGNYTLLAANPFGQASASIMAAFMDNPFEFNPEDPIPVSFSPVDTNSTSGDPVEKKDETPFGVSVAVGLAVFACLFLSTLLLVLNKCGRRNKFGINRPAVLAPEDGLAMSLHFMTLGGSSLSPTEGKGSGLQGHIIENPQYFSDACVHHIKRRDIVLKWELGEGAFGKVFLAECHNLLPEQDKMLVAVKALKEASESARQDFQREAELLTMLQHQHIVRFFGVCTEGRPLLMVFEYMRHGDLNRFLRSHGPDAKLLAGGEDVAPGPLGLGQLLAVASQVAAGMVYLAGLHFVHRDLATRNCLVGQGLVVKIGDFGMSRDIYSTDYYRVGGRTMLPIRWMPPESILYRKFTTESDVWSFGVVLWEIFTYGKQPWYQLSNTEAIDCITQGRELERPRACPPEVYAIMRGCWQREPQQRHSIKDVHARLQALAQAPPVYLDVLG

Chain of Macrophage colony-stimulating factor 1 receptor (P07333 whole entry): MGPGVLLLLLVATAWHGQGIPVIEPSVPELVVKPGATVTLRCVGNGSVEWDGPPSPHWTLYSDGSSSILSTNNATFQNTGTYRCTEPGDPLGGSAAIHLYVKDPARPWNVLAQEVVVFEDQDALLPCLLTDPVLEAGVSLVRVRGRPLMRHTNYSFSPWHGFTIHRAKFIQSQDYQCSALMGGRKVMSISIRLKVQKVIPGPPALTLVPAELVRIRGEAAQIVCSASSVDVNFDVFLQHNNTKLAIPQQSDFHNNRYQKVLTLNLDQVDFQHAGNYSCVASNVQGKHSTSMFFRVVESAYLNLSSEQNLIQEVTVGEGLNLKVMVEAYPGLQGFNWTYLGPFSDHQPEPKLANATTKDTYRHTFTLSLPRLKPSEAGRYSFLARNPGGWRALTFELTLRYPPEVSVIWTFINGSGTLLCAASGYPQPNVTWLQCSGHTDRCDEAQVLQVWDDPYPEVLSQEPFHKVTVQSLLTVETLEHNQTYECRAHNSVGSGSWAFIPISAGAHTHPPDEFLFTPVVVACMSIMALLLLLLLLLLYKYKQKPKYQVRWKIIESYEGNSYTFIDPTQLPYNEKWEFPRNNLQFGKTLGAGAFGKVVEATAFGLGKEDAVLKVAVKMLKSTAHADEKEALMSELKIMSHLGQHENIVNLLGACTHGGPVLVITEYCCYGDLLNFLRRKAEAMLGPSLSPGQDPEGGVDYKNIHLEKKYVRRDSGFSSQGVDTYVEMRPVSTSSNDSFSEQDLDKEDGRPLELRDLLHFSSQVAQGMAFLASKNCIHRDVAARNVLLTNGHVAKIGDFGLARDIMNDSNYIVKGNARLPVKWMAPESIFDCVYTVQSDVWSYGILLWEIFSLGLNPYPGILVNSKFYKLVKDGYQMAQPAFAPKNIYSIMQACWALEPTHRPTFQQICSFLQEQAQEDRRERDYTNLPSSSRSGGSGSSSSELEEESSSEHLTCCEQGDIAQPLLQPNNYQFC

Compound: CC1CCN(c2cc(N3CCN(C)CC3)cnc2NC(=O)c2ccc(C#N)o2)CC1
IC50 [1]: 720 nM

Compound: N#Cc1ccc(C(=O)Nc2ccc(N3CCS(=O)(=O)CC3)cc2N2CCCCC2)o1
IC50 [1]: 0.7 nM

Compound: CN1CCN(c2ccc(NC(=O)c3ccc(C#N)o3)c(N3CCOCC3)c2)CC1
IC50 [1]: 80 nM | IC50 (Macrophage): 2800 nM

Compound: CC1CCN(c2nc(N3CCN(C)CC3)ccc2NC(=O)c2ccc(C#N)o2)CC1
IC50 [1]: 10 nM

Compound: Cc1cnn(-c2ccc(NC(=O)c3ccc(C#N)o3)c(N3CCCCC3)c2)c1
IC50 [1]: 64 nM

Compound: CC1CCN(c2cc(N3CCOCC3)ccc2NC(=O)c2ccc(C#N)o2)CC1
IC50 [1]: 11 nM

Compound: CC1CCN(c2cc(N3CCN(C)CC3)ccc2NC(=O)c2cc(C#N)c[nH]2)CC1
Cmax [2]: 853 ng/mL | Activity (Mus musculus [6]): 35% | Activity (Mus musculus [7]): 80% | IC50 [8]: 3.5 nM | Activity (Mus musculus [9]): 80% | half-life [3]: 4.07 h | Activity (Mus musculus [10]): 65% | bioavailability [4]: 45% | IC50 [11]: 11 nM | Vd [5]: 5.63 L/kg

Compound: CC1CCN(c2cc(N3CCNCC3)ccc2NC(=O)c2cc(C#N)c[nH]2)CC1
IC50 [1]: 1 nM

Compound: CC(=O)N1CCN(c2ccc(NC(=O)c3cc(C#N)c[nH]3)c(N3CCC(C)CC3)c2)CC1
IC50 [1]: 0.7 nM

Compound: CN1CCN(c2ccc(NC(=O)c3cc(C#N)c[nH]3)c(N3CCCCC3)c2)CC1
IC50 (Macrophage): 2 nM

Compound: CN(c1ccc(NC(=O)c2ccc(C#N)o2)c(N2CCCCC2)c1)S(C)(=O)=O
IC50 [1]: 25 nM

Compound: CS(=O)(=O)Nc1ccc(NC(=O)c2ccc(C#N)o2)c(N2CCCCC2)c1
IC50 [1]: 71 nM

More lines, main results first:

Cmax [2]: 454 ng/mL | half-life [3]: 1.63 h | bioavailability [4]: 39% | Vd [5]: 11.4 L/kg
Compound: CC1CCN(c2cc(N3CCN(C)CC3)ccc2NC(=O)c2ccc(C#N)o2)CC1
IC50 (Macrophage): 2 nM

IC50 [1]: 6.3 nM
Compound: CN1CCN(c2ccc(NC(=O)c3ccc(C#N)o3)c(N3CCCC(F)C3)c2)CC1 (configuration not stated)

IC50 [1]: > 60 nM
Compound: CN1CCN(c2ccc(NC(=O)c3ccc(C#N)o3)c(N3CCCCC3=O)c2)CC1
IC50 (Macrophage): > 10000 nM

IC50 [1]: 3 nM
Compound: N#Cc1ccc(C(=O)Nc2ccc(-n3ccnc3)cc2N2CCCCC2)o1

IC50 [1]: 21 nM
Compound: CCOc1ccc(NC(=O)c2ccc(C#N)o2)c(N2CCCCC2)c1

IC50 [1]: 83 nM
Compound: CN1CCN(C(=O)N(C)c2ccc(NC(=O)c3ccc(C#N)o3)c(N3CCCCC3)c2)CC1

IC50 [1]: 0.9 nM
Compound: CC1CCN(c2cc(N3CCN(S(C)(=O)=O)CC3)ccc2NC(=O)c2ccc(C#N)o2)CC1

IC50 [1]: 17 nM
Compound: N#Cc1ccc(C(=O)Nc2ccc(N3CCCCC3)cc2N2CCCCC2)o1

IC50 [1]: 52 nM
Compound: CCN(C)CCCc1ccc(NC(=O)c2ccc(C#N)o2)c(N2CCCCC2)c1

Cmax [2]: 386 ng/mL | half-life [3]: 1.03 h | bioavailability [4]: 32% | Vd [5]: 7.97 L/kg
Compound: CN1CCN(c2ccc(NC(=O)c3ccc(C#N)o3)c(N3CCCCC3)c2)CC1
IC50 (Macrophage): 5 nM

IC50 [1]: 63 nM
Compound: N#Cc1ccc(C(=O)Nc2ccc(F)cc2N2CCCCC2)o1
